Source: patent US7060697B2, “Immunosuppressant compounds and compositions” (IRM LLC, priority 2003, dated 2006)

Experiments:
human EDG-1 = molecular target: T1, human EDG-1 (Homo sapiens, UniProt P21453); assay: GPCR activation assay measuring GTP [γ-35S] binding to membranes from CHO cells expressing human EDG receptors; type: biochemical
T1 construct: c-myc (N); expressed in transfected cells; homogenized membranes
Protocol: A. In vitro: GPCR Activation Assay Measuring GTP [γ-^35S] Binding to Membranes Prepared from CHO Cells Expressing Human EDG Receptors
EDG-1 (S1P1) GTP [γ-^35S] binding assay: Homogenized membranes are prepared from CHO cell clones stably expressing a human EDG-1 N-terminal c-myc tag. Cells are grown in suspension in two 850 cm^2 roller bottles for three or fours days before harvesting. The cells are centrifuged down, washed once with cold PBS, and resuspended in ≦20 ml of Buffer A (20 mM HEPES, pH 7.4, 10 mM EDTA, EDTA-free complete protease inhibitor cocktail [1 tablet/25 ml]). The cell suspension is homogenized on ice, using a Polytron homogenizer at 30000 rpm at three intervals of 15 seconds each. The homogenate is first centrifuged at 2000 rpm on a tabletop low speed centrifuge for 10 minutes. The supernatant, after passing through a cell strainer, is then re-centrifuged at 50,000×g for 25 minutes at 4° C. The pellet is resuspended into buffer B (15% glycerol, 20 mM HEPES, pH 7.4, 0.1 mM EDTA, EDTA-free complete protease inhibitor cocktail [1 tablet/10 ml]). Protein concentration of the prep is determined using the BCA Protein Assay kit (Pierce) using BSA as standard. The membranes are aliquoted and kept frozen at −80° C.
Solutions of test compounds ranging from 10 mM to 0.01 nM are prepared in DMSO. S1P is diluted in 4% BSA solution as positive controls. […]

blood lymphocytes = assay: Measurement of circulating lymphocytes (blood lymphocyte depletion); type: in vivo, Rats (C57b1/6 male); settings: Rattus norvegicus, oral gavage, blood collected 6 and 24 hours after administration, read-out: ED50 (effective dose required displaying 50% of blood lymphocyte depletion)
Protocol: C. In vivo: Screening Assays for Measurement of Blood Lymphocyte Depletion and Assessment of Heart Effect
Measurement of circulating lymphocytes: Compounds are dissolved in DMSO and diluted to obtain a final concentration of 4% DMSO (v/v, final concentration) and then further diluted in a constant volume of Tween80 25%/H2O, v/v. Tween80 25%/H2O (200 μl), 4% DMSO, and FTY720 (10 μg) are included as negative and positive controls, respectively. Rats (C57b1/6 male, 6–10 week-old) are administered 250–300 μL of compound solution orally by gavages under short isoflurane anesthesia.
Blood is collected from the retro-orbital sinus 6 and 24 hours after drug administration under short isoflurane anesthesia. Whole blood samples are subjected to hematology analysis. Peripheral lymphocyte counts are determined using an automated analyzer. Subpopulations of peripheral blood lymphocytes are stained by fluorochrome-conjugated specific antibodies and analyzed using a fluorescent activating cell sorter (Facscalibur). Two rats are used to assess the lymphocyte depletion activity of each compound screened. The result is an ED50, which is defined as the effective dose required displaying 50% of blood lymphocyte depletion.

T1 sequence (P21453 whole entry): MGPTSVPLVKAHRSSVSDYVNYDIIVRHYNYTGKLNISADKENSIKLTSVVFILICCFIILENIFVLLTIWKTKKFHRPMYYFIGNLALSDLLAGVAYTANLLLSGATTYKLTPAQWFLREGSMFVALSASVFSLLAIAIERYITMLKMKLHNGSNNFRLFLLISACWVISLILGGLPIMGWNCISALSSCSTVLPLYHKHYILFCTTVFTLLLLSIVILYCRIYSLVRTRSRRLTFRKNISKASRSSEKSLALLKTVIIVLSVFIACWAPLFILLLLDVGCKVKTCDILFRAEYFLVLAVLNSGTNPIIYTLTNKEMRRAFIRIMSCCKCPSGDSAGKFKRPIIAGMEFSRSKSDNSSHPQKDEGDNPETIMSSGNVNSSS

- EC50 (human EDG-1; EDG-1 (S1P1) GTP [γ-35S] binding, CHO cell membranes): 820 pM
- selectivity for EDG-1 compared to one or more of the other receptors including EDG-3, EDG-5, EDG-6 and EDG-8 (human EDG-1; GTP [γ-35S] binding assays): at least 1000 fold
SMILES: O=C(O)C1CN(Cc2ccc(SCc3ccc(-c4ccccc4)c(C(F)(F)F)c3)cc2)C1 [Compound 9, 1-[4-(2-trifluoromethyl-biphenyl-4-ylmethylsulfanyl)-benzyl]-azetidine-3-carboxylic acid]
- ED50 (blood lymphocytes): < 0.1 mg/kg
